This is an account of results in US8759366B2, “Aminopyrimidines as SYK inhibitors” (Merck Sharp & Dohme Corp., priority 2009, dated 2014).

Where two headings read alike, the source gives them in different places. Where only a bound is given, the exact number is not on record here.

Test [1] addresses recombinant human SYK (GST-hSYK fusion protein) (Homo sapiens (Human), UniProt P43405).
Text: Homogeneous Time-Resolved Fluorescence (HTRF) Assay for the Recombinant Human SYK Enzyme:
The next test addresses rhSYK (Homo sapiens (Human), UniProt P43405). As to conditions: read-out: rhSYK activity.
The mark [2] stands for this setting: read-out: rhSYK Activity, recombinant human SYK, HTRF assay, class symbols.
The mark [3] stands for this setting: read-out: rhSYK Activity, Table 119, HTRF assay, IC50 class symbols.
[4] abbreviates: read-out: rhSYK Activity, Table 113C.

As for `Cc1cc(Nc2nccc(C(F)(F)F)n2)cc(-c2cnc(C3(O)CCCN(CC(=O)OC(C)(C)C)CC3)s2)c1` (stereo not drawn) [Example 54A-89], the IC50 in test [1] (setting [2]) was below 100 nM. As to `Cc1cc(Nc2nccc(C(F)(F)F)n2)cc(-c2cnc(C3(O)CCC(C(=O)Nc4ccc(O)nc4)CC3)s2)c1` (stereo not drawn) [Example 119-61], the IC50 in test [1] (setting [3]) was below 100 nM. As to `Cc1cc(Nc2nccc(OCCN3CC(F)C(F)C3)n2)cc(-c2cnc(C3(O)CCC3)s2)c1` (stereo not drawn) [Example 108A-5], in test [1] (read-out: rhSYK activity), the IC50 is below 100 nM. For `CCOC(=O)C1CCC(O)(c2ncc(-c3cc(C)cc(Nc4nccc(OCCCOC)n4)c3)s2)CC1C` (stereo not drawn) [Example 113A-47], in test [1] (read-out: rhSYK Activity, Table 113A), the IC50 fell in the range of 100 to 1000 nM. With `Cc1cc(Nc2nccc(C(F)(F)F)n2)cc(-c2cnc(C3(O)CCC(C(=O)O)C(C)C3C)s2)c1` (single isomer, unassigned) [Example 33B-39], in test [1] (read-out: rhSYK Activity, Table 33B), the IC50 was below 100 nM. `Cc1cc(Nc2nccc(C(F)(F)F)n2)cc(-c2cnc(C3(O)CCC(NC(=O)[C@H](C)O)CC3)s2)c1` (stereo in doubt) [Example 54E-2]: in test [1] (read-out: rhSYK activity), the IC50 is below 100 nM.

As for `Cc1cc(Nc2nccc(C(F)(F)F)n2)cc(-c2cnc(C3(O)CCN(C4CC=C(C(=O)O)CC4)C3)s2)c1` (stereo not drawn) [Example 54B-33], the IC50 in test [1] (setting [2]) was below 100 nM. Take `Cc1cc(Nc2nccc(C(F)(F)F)n2)cc(-c2cnc(C3(O)CCC(C(=O)NCc4ncon4)CC3)s2)c1` (stereo not drawn) [Example 119-45]: the IC50 in test [1] (setting [3]) is below 100 nM. On to `Cc1cc(Nc2nccc(OCCC3CCCN3C)n2)cc(-c2cnc(C3(O)CCC3)s2)c1` (stereo not drawn) [Example 108A-17], for which the IC50 in test [1] (read-out: rhSYK activity) is below 100 nM.

Turning to `COC(=O)c1ccc(C2(c3ncc(-c4cc(C)cc(Nc5nccc(C(F)(F)F)n5)c4)s3)CC2)cc1` [Example 113D-8], the IC50 in test [1] (read-out: rhSYK Activity, Table 113D, upper part) fell in the range of 100 to 1000 nM. Turning to `Cc1cccc(NC(=O)N2CCC(O)(c3ncc(-c4cc(C)cc(Nc5nccc(C(F)(F)F)n5)c4)s3)CC2)c1` [Example 54A-63], the IC50 in test [1] (setting [2]) was below 100 nM.

In the case of `Cc1cc(Nc2ncc(F)c(C)n2)cc(-c2cnc(C3(O)CCN(C(N)=O)C3)s2)c1` (stereo not drawn) [Example 54B-16], the IC50 in test [1] (setting [2]) was below 100 nM.

As for `Cc1cc(Nc2nccc(C(F)(F)F)n2)cc(-c2cnc(C3(O)CCCN(CC(=O)O)CC3)s2)c1` (stereo not drawn) [Example 54A-83], the IC50 in test [1] (setting [2]) lay in the range of 100 to 1000 nM.

`FC(F)(F)c1ccnc(Nc2cc(-c3cnc(C4(F)CCC4)s3)cc(N3CCOCC3)c2)n1` [Example 26-2]: the IC50 in test [1] (read-out: rhSYK Activity, Table 26) was in the range of 100 to 1000 nM.

Take `O=C1CCC(O)(c2ncc(-c3cccc(Nc4nccc(C(F)(F)F)n4)c3)s2)CCN1` (stereo not drawn) [113C-8]: the IC50 in test [1] (setting [4]) is below 100 nM. With `Cc1cc(Nc2nccc(C(F)(F)F)n2)cc(-c2cnc(C3(O)CCC(C(=O)NCc4cncnc4)CC3)s2)c1` (stereo not drawn) [Example 119-57], the IC50 in test [1] (setting [3]) is below 100 nM. Still for that read-out and setting: the value for `Cc1cc(Nc2nccc(C(F)(F)F)n2)cc(-c2cnc(C3(O)CCC(C(=O)NCc4ccns4)CC3)s2)c1` (stereo not drawn) [Example 119-66] was below 100 nM.

Regarding `Cc1cc(Nc2nccc(C(F)(F)F)n2)cc(-c2cnc(C3(O)CCN(C(=O)c4ocnc4C)C3)s2)c1` (stereo not drawn) [Example 54B-31], the IC50 in test [1] (setting [2]) was below 100 nM. For the molecule `Cc1cc(Nc2nccc(C(F)(F)F)n2)cc(-c2cnc(C3(O)CCC(C(=O)NCc4cccnn4)CC3)s2)c1` (stereo not drawn) [Example 119-58], the IC50 in test [1] (setting [3]) was below 100 nM. With `Cc1cc(Nc2nccc(C3CC3)n2)cc(-c2cnc(C3(O)CCCN(C(=O)OC(C)(C)C)CC3)s2)c1` (single isomer, unassigned) [113C-17], the IC50 in test [1] (setting [4]) is below 100 nM. With `COC(=O)C(C)(C)/C=C/C(C)(O)c1ncc(-c2cc(C)cc(Nc3nccc(C(F)(F)F)n3)c2)s1` (stereo not drawn) [Example 33D-6], the IC50 in test [1] (read-out: rhSYK Activity, Table 33D) is below 100 nM. With `COc1nc(Nc2cc(C)cc(-c3cnc(C4(O)CCCN(C(=O)c5cnn[nH]5)CC4)s3)c2)ncc1Cl` (single isomer, unassigned) [Example 54D-32], the IC50 in test [1] (setting [2]) was below 100 nM. As for `CC1(c2ncc(-c3cc(Nc4nccc(C(F)(F)F)n4)cc(N4CCOCC4)c3)s2)OCCO1` [Example 24-2], the IC50 in test [1] (read-out: rhSYK Activity, Table 24) was below 100 nM.

With `Cc1cc(Nc2nccc(C(F)(F)F)n2)cc(-c2cnc(C3(O)CCC(C(=O)NCc4ccc(CO)cc4)CC3)s2)c1` (stereo not drawn) [Example 119-85], the IC50 in test [1] (setting [3]) was below 100 nM.

Regarding `Cc1cc(Nc2nccc(C3CC3)n2)cc(-c2cnc(C3(O)CCCN(C(=O)OC(C)(C)C)CC3)s2)c1` (single isomer, unassigned) [113C-18], the IC50 in test [1] (setting [4]) was 100 to 1000 nM. On to `Cc1cc(Nc2nccc(C)n2)cc(-c2cnc(C3(O)CCC(C(=O)NCCCN4CCCC4=O)C(C)C3)s2)c1` (stereo not drawn) [Example 119-116], for which, in test [1] (setting [3]), the IC50 was below 100 nM. Consider `Cc1cc(Nc2nccc(C(C)C)n2)cc(-c2cnc(C3(O)CCCN(C(=O)OC(C)(C)C)CC3)s2)c1` (stereo not drawn) [113C-19], for which, in test [1] (setting [4]), the IC50 was below 100 nM.

In the case of `Cc1cc(Nc2nccc(C)n2)cc(-c2cnc(C3(O)C4CC5CC3CC(C(=O)O)(C5)C4)s2)c1` (stereo not drawn) [Example 33C-20], the IC50 in test [1] (read-out: rhSYK Activity, Table 33C) was below 100 nM. As for `Cc1cc(Nc2nccc(C(F)(F)F)n2)cc(-c2cnc(C3(O)CCC(C)(C(N)=O)CC3)s2)c1` (stereo not drawn) [Example 117-3], in test [1] (read-out: rhSYK Activity, Table 117, HTRF assay, IC50 class symbols), the IC50 is below 100 nM.

As for `Cc1cc(Nc2nccc(C(F)(F)F)n2)cc(-c2cnc(C3CCCCC(=O)C3)s2)c1` (stereo not drawn) [Example 36A-10], the IC50 in test [1] (read-out: rhSYK Activity, Table 36A) is below 100 nM.

With `Cn1ccc(C(C)(O)c2ncc(-c3cccc(Nc4nccc(C(F)(F)F)n4)c3)s2)c1` (stereo not drawn) [Example 4A-16], the IC50 on rhSYK is below 100 nM. As for `CC(O)(c1ncc(-c2cccc(Nc3nccc(C(F)(F)F)n3)c2)s1)C1CCNCC1` (stereo not drawn) [Example 15(2), 1-(piperidin-4-yl)-1-[5-(3-{[4-(trifluoromethyl)pyrimidin-2-yl]amino}phenyl)-1,3-thiazol-2-yl]ethanol], on rhSYK, the IC50 is below 100 nM. With `CC1(C)C(O)C(C)(C)C1(O)c1ncc(-c2cccc(Nc3nccc(C(F)(F)F)n3)c2)s1` (stereo not drawn) [Example 6-10], the IC50 at rhSYK lay within 100 to 1000 nM. With `Cc1cc(Nc2nccc(C(F)(F)F)n2)cc(-c2cnc(C3CCC(C(=O)O)CC3)s2)c1` (stereo not drawn) [Example 36, 4-[5-(3-methyl-5-{[4-(trifluoromethyl)pyrimidin-2-yl]amino}phenyl)-1,3-thiazol-2-yl]cyclohexanecarboxylic acid], the IC50 at rhSYK is below 100 nM.

With `CSc1ccc(C(C)(O)c2ncc(-c3cc(C)cc(Nc4nccc(C(F)(F)F)n4)c3)s2)cc1` (stereo not drawn) [Example 4A-57, 1-[4-(methylsulfanyl)phenyl]-1-[5-(3-methyl-5-{[4-(trifluoromethyl)pyrimidin-2-yl]amino}phenyl)-1,3-thiazol-2-yl]ethanol], the IC50 at rhSYK lay within 100 to 1000 nM.

Consider `CC(C)(CO)c1ncc(-c2cccc(Nc3nccc(C(F)(F)F)n3)c2)s1` [Example 21, 2-methyl-2-[5-(3-{[4-(trifluoromethyl)pyrimidin-2-yl]amino}phenyl)-1,3-thiazol-2-yl]propan-1-ol], for which the IC50 at rhSYK was below 100 nM. Same read-out and setting: as for `Cc1cc(Nc2nccc(C(=O)O)n2)cc(-c2cnc(C(C)(O)C(F)(F)F)s2)c1` (stereo not drawn) [Example 68, 2-({3-methyl-5-[2-(1,1,1-trifluoro-2-hydroxypropan-2-yl)-1,3-thiazol-5-yl]phenyl}amino)-pyrimidine-4-carboxylic acid], the figure is 1000 to 10000 nM; as for `Cc1cc(Nc2nccc(C)n2)cc(-c2cnc(C3(O)CCC(N)(C(=O)O)CC3)s2)c1` (stereo not drawn) [Example 4C-10], below 100 nM; as for `CC(=O)NS(=O)(=O)C1(c2ncc(-c3cc(C)cc(Nc4nccc(C(F)(F)F)n4)c3)s2)CCC1` [Example 74, N-({1-[5-(3-methyl-5-{[4-(trifluoromethyl)pyrimidin-2-yl]amino}phenyl)-1,3-thiazol-2-yl]-cyclobutyl}sulfonyl)acetamide], below 100 nM.
